From PubChem BioAssay AID651816 (Broad Institute, 2012)
Where “and” joins values, the source holds several entries; their conditions need not be identical. Equal entries are not always repeated. Calls of active or inactive are those of the source. No rule for the calls is given here.

Tested on: not listed separately
Assay: Cholera quorum light production inducers, absence of autoinducers, BH1578 strain, confirmatory dose response (AID 651816)
Settings: V. cholerae BH1578 luxCDABE luminescence, 6 h; at 80 µM (top of the series)

SMILES | activation
c1ccc(Cn2nnnc2NCc2ccc(N3CCCC3)cc2)cc1 | 0.055% (inactive)
O=C(Cc1ccccc1F)NC1CCCC1 | 0.028% (inactive)
CCn1nnnc1NCc1cccc(OC)c1 | 3.31% (inactive)
CCn1nnc(CCc2ccc(N3CCCC3)cc2)n1 | 0.033% (inactive)
CCc1ccccc1NCc1ccc(N2CCCC2)cc1 | 0.047% (inactive)
O=C(Cc1ccc(-c2ccccc2)cc1)NC1CCCCC1 | 7.99% (inactive)
COc1ccc(CC(=O)NC2CCCC2)cc1 | 0.353% (inactive)
c1ccc(Cn2nnc(NCc3ccc(N4CCCC4)cc3)n2)cc1 | 0.04% (inactive)
Cc1ccccc1CC(=O)NC1CCCC1 | 0.039% (inactive)
CCn1nnnc1NCc1ccccc1N1CCCC1 | -0.011% (inactive)
CS(=O)(=O)c1ccc(CC(=O)NC2CCCC2)cc1 | -0.008% (inactive)
O=C(Cc1ccccc1C(F)(F)F)NC1CCCC1 | -0.032% (inactive)
O=C(Cc1ccccc1OC(F)(F)F)NC1CCCC1 | -0.008% (inactive)
O=C(Cc1cccc(OC(F)(F)F)c1)NC1CCCC1 | 0.099% (inactive)
c1ccc(-n2nnnc2NCc2ccc(N3CCCC3)cc2)cc1 | 0.051% (inactive)
CCn1nnc(NCc2ccc(C)cc2)n1 | 0.015% (inactive)
Cc1ccc(Cn2nnnc2NCc2ccc(N3CCCC3)cc2)cc1 | 0.022% (inactive)
O=C(NCc1ccc(-c2ccccc2)cc1)C1CCCC1 | 0.19% (inactive)
Fc1ccc(Cn2nnnc2NCc2ccc(N3CCCC3)cc2)cc1 | 0.053% (inactive)
CCn1nccc1NCc1ccc(N2CCCC2)cc1 | 0.056% (inactive)
O=C(Cc1ccccc1Cl)NC1CCCC1 | -0.009% (inactive)
CCCn1nnnc1NCc1ccccc1Cl | -0.011% (inactive)
O=C(Cc1cccc(F)c1)NC1CCCC1 | 0.665% (inactive)
CCn1nccc1/N=C/c1ccc(N2CCCC2)cc1 | 0.02% (inactive)

Tested on: V. cholerae BH1578 luxCDABE luminescence, 6 h
Assay: as above
Settings: not given

SMILES | AC40
CC(C)NC(=O)Cc1ccc(-c2ccccc2)cc1 | 6210 nM
CCCCn1nnnc1NCc1ccc(N2CCCC2)cc1 | 5660 nM
CCn1nnnc1NCc1ccc(N2CCCCC2)cc1 | 121 nM
CCn1nnnc1CCc1ccc(N2CCCC2)cc1 | 1680 nM
CCn1nnnc1NCc1cccc(N2CCCC2)c1 | 504 nM
CCC(CC)NC(=O)Cc1ccc(-c2ccccc2)cc1 | 5370 nM
CCCn1nnnc1NCc1ccc(C(C)C)cc1 | 793 nM
O=C(Cc1ccc(-c2ccccc2)cc1)NC1CCOCC1 | 2890 nM
Cn1nnnc1NCc1ccc(N2CCCC2)cc1 | 956 nM
CCCn1nnnc1NCc1ccc(N2CCCC2)cc1 | 60.8 nM
CC(C)c1ccc(CNc2nnnn2C)cc1 | 3260 nM
O=C(Cc1ccc(-c2ccccc2)cc1)NC1CCCC1 | 409 nM and 756 nM
O=C(Cc1ccc(-c2ccccc2)cc1)NC1CCC1 | 510 nM
CCn1nnnc1NCc1ccc(C(C)C)cc1 | 89.1 nM and 143 nM
CCn1nnnc1NCc1ccc(N2CCCC2)cc1 | 20.9 nM
CCC(C)NC(=O)Cc1ccc(-c2ccccc2)cc1 (stereo not given) | 4820 nM
